According to patent US4230719A, “Novel 2-[4-(3-methyl-2-thienyl)phenyl]propionic acid and pharmaceutically acceptable salt thereof and method for treating symptoms of inflammation and pain” (Toyama Chemical Co., Ltd., priority 1977, dated 1980):

Key:
[1] = test system: Adjuvant arthritis; assay: Adjuvant arthritis; type: in vivo, rat (Sprague-Dawley strain, male); settings: 1 mg/kg p.o./day, mean during one week
Method: A suspension containing 6 mg/ml of killed and dried Mycobacterium butyricum in liquid paraffin was subcutaneously injected into the subplantar region of the left hind paw of Sprague-Dawley strain male rats (weighing 180 to 200 g) in a proportion of 0.1 ml/rat. After 14 days, the rats having inflammatory paws of similar volumes were selected and the test compound was orally administered to the rats repeatedly at the rate shown in Table 4 during one week and the mean inhibitory percent of swelling during one week was determined.

[2] = in vivo; settings: rat, po
[3] = test system: gastric mucosa and intestine; assay: Test for ulcerogenic action (ii), three doses, rats on normal meal; type: in vivo, rat (Donryu strain, male); set-up: scale not given here
Method: (ii) In the same manner as in (i), the test compound was orally administered to each Donryu strain male rat (weighing about 180 g; 10 rats per group) which had received normal meal. The second dose was administered after 8 hours and the third dose after 16 hours from the second dose. Five hours after the last administration, the rats were treated in the same manner as in (i). The gastric mucosa injury and the intestinal injury were scored in the same manner as in (i).

[4] = Test for ulcerogenic action (i), single dose, fasted rats; type: in vivo; settings: rat, in vivo, po
Method: (§1) (4) Test for ulcerogenic action
(§2) After 18 hours, the rats were killed by suffocation with chloroform and their stomachs were excised. After having been filled with 5 ml of 1% formalin to fix the gastric mucosa, each stomach was incised along the greater curvature to inspect grossly the extent of injury of the gastric mucosa. The extent of injury was scored as follows: 0, no lesion; 1, petechia or erosion; 2, 1-5 small ulcers; 3, many small ulcers; 4, many large ulcers or perforation. The intestinal injury was evaluated based on the incidence of erosion.

[5] = test system: gastric mucosa and intestine; assay: as above; type: in vivo; settings: for Gastric glandular score: 18 hours, score 0 (no lesion) to 4 (many large ulcers or perforation)
Method: as §1, §2

[6] = test system: Carrageenin-induced edema; assay: Carrageenin-induced edema; type: in vivo, rat (Donryu strain, male); settings: Rattus norvegicus, po, mean in 5 hours, read-out: Inhibitory percent of swelling; for inhibition in vivo at 1 mg/kg: 1 mg/kg p.o.; for inhibition in vivo at 5 mg/kg: 5 mg/kg p.o.
Method: (iii) Carrageenin-induced edema
Each of the 6 Donryu strain male rats per group (each weighing about 140 g), which had been fasted overnight, was orally loaded with 4 ml of water and, after 30 minutes, the test compound was orally administered thereto. Thirty minutes thereafter, a 1%(Wt/V) solution of carrageenin in physiological saline was subcutaneously injected into the subplantar region of the left hind paw. At a time interval of one hour, starting from the end of the first hour till the end of the fifth hour after injection of carrageenin, the paw volume was measured by means of a manometer and pressure transducer. By comparison with the percent increase in swelling of the control group of rats to which a 0.5%(V/V) solution of Tween 80 had been administered, the mean inhibitory percent in 5 hours of swelling was calculated by the following equation: [formula]

[7] = test system: Vascular permeability; assay: Vascular permeability in mice (Whittle's method); type: in vivo, mouse (ddY strain, male); settings: for Inhibition: dye leakage; for ED30: po, mouse, read-out: ED30
Method: (i) Vascular permeability in mice (Whittle's method)
The test compound was orally administered to each ddY strain male mouse (weighing each about 20 g). After 20 minutes, 0.1 ml/10 g of a 4%(Wt/V) solution of Pontamine Sky Blue in physiological saline was intravenously injected and 10 minutes thereafter 0.1 ml/10 g of a 0.7%(V/V) solution of acetic acid in physiological saline was injected intraperitoneally. After 30 minutes, the mice were killed by suffocation with chloroform. After immediate laparotomy, the dye leaked into the peritoneal cavity was washed out with distilled water. The washings were made up with water to 30 ml and the absorbance at 620 mμ was measured. The amount of leaked dye per 20 g of mouse weight was compared.

[8] = test system: phenylbenzoquinone writhing; assay: Analgesic activity, phenylbenzoquinone method in mouse; type: in vivo, mouse (ddY strain, male); settings: for Frequency of writhing, mean ± S.E.: during 10 minutes; for inhibition in vivo at 10 mg/kg / inhibition in vivo at 20 mg/kg / inhibition in vivo at 40 mg/kg: Mus musculus, 10 min, writhing; for inhibition in vivo at 10 mg/kg / inhibition in vivo at 20 mg/kg / inhibition in vivo at 40 mg/kg / ED50: po; for inhibition in vivo at 10 mg/kg / inhibition in vivo at 20 mg/kg: read-out: Inhibition; for ED50: mouse, read-out: ED50
Method: (i) Phenylbenzoquinone method in mouse
The test compound was orally administered to each ddY strain male mouse (weighing 22±2 g; 8 mice per group). […] The frequency of writhing during 10 minutes from 5-minutes after the injection of phenylbenzoquinone was measured and compared with that of a control group to which a 0.5% Tween 80 solution was administered. The percent inhibition was calculated by the following equation: [formula]

[9] = test system: pain threshold (brewer's yeast, hind paw); assay: Analgesic activity, Randall-Selitto method in rat; type: in vivo, rat (Wistar strain, male); settings: for Inhibition: 100% = pain threshold raised by 150 g; for ED50: po, rat, read-out: ED50
Method: (ii) Randall-Selitto method in rat
After one hour, the test compound was orally administered. One hour thereafter, the pain threshold value was measured four times at a time interval of one hour. The mean value of four values obtained was taken as the pain threshold value of each group of rats. The activity of the drug was assumed to be 100% when the pain threshold value was raised by 150 g.

[10] = test system: Vascular permeability; assay: Vascular permeability in rat (Whittle's method); type: in vivo, rat (Wistar strain, male); settings: for ED30: po, rat, read-out: ED30
Method: (ii) Vascular permeability in rat (Whittle's method)
The test compound was orally administered to each Wistar strain male rat (weighing about 150 g) which had been fasted overnight. After 55 minutes, 0.5 ml of a 0.5% Evans Blue solution was intravenously injected. Five minutes thereafter, 0.2 ml/100 g of a 3%(V/V) acetic acid solution was intraperitoneally injected. After 60 minutes from the injection of the acetic acid solution, the rats were killed by suffocation with chloroform. After immediate laparotomy, the dye leaked into the peritoneal cavity was washed out with physiological saline. The washings were made up with the saline to 30 ml and the absorbance at 640 mμ was measured to examine the effect of the test compounds by comparing the amounts of leaked dye per rat with one another.

SMILES | Inhibitory percent of swelling [1] [%] | LD50 [2] [mg/kg] | Score, intestine, mean ± S.E. ([3]; 5 mg/kg × 3 p.o.) | Score, stomach, mean ± S.E. ([3]; 5 mg/kg × 3 p.o.) | Score, intestine, mean ± S.E. ([3]; 15 mg/kg × 3 p.o.) | Score, stomach, mean ± S.E. ([3]; 15 mg/kg × 3 p.o.) | TD50 at 18 h [4] [mg/kg] | Intestine erosion incidence ([5]; 10 mg/kg p.o.) | Gastric glandular score ([5]; 10 mg/kg p.o.) | Intestine erosion incidence ([5]; 30 mg/kg p.o.) | Gastric glandular score ([5]; 30 mg/kg p.o.) | Intestine erosion incidence ([5]; 100 mg/kg p.o.) | Gastric glandular score ([5]; 100 mg/kg p.o.) | inhibition in vivo at 1 mg/kg [6] [%] | inhibition in vivo at 5 mg/kg [6] [%] | Dye leakage (P.S.B.) mean ± S.E. ([7]; 5 mg/kg p.o.) [μg/20g] | Dye leakage (P.S.B.) mean ± S.E. ([7]; 10 mg/kg p.o.) [μg/20g] | Inhibition ([7]; 5 mg/kg p.o.) [%] | Inhibition ([7]; 10 mg/kg p.o.) [%] | ED30 [7] [mg/kg] | other results
CC(C(=O)O)c1ccc(-c2cccs2)cc1 (centres unmarked) [Compound C2] | 7.2 | 115 | 1.07 ± 0.30 | 1.21 ± 0.18 | 1.17 ± 0.21 | 2.33 ± 0.31 | 25 | 1/7 | 1.11 ± 0.21 | 1/7 | 1.89 ± 0.24 | 6/7 | 3.61 ± 0.26 | 11.8 | 32.9 | 314.7 ± 31.3 | 264.8 ± 21.8 | 1.9 | 17.5 | 19.8 | Death incidence ([5]; rat, in vivo): 3/7; Frequency of writhing, mean ± S.E. ([8]; 10 mg/kg p.o.): 22.3 ± 1.9; Frequency of writhing, mean ± S.E. ([8]; 20 mg/kg p.o.): 14.6 ± 3.1; Frequency of writhing, mean ± S.E. ([8]; 40 mg/kg p.o.): 11.1 ± 2.4; inhibition in vivo at 10 mg/kg ([8]; 10 mg/kg p.o.): 5.5%; inhibition in vivo at 20 mg/kg ([8]; 20 mg/kg p.o.): 38.1%; inhibition in vivo at 40 mg/kg ([8]; 40 mg/kg p.o.): 53%; ED50 [8]: 33 mg/kg; Inhibition ([9]; 1 mg/kg p.o.): 33.8%; Inhibition ([9]; 5 mg/kg p.o.): 35.2%; Inhibition ([9]; 25 mg/kg p.o.): 58.5%; ED50 [9]: 14.5 mg/kg; Inhibition ([10]; 1 mg/kg p.o.): 16.4%; Inhibition ([10]; 5 mg/kg p.o.): 47.3%; ED30 [10]: 2.1 mg/kg
CC(C(=O)O)c1ccc(-c2cccs2)c(Cl)c1 (centres unmarked) [Compound C3] | 8.1 | 270 | 0.83 ± 0.21 | 1.67 ± 0.31 | 1.50 ± 0.38 | 2.36 ± 0.14 | 27 | 0/7 | 1.18 ± 0.30 | 0/7 | 1.96 ± 0.42 | 4/7 | 3.39 ± 0.30 | 15.2 | 42 | 289.3 ± 21.4 | 254.2 ± 10.3 | 9.8 | 20.8 | 20.5 | Dye leakage (P.S.B.) mean ± S.E. ([7]; 20 mg/kg p.o.): 226.9 ± 15.3 μg/20g; Inhibition ([7]; 20 mg/kg p.o.): 29.3%; Frequency of writhing, mean ± S.E. ([8]; 10 mg/kg p.o.): 23.1 ± 3.5; Frequency of writhing, mean ± S.E. ([8]; 20 mg/kg p.o.): 19.4 ± 3.7; Frequency of writhing, mean ± S.E. ([8]; 40 mg/kg p.o.): 12.4 ± 3.0; inhibition in vivo at 10 mg/kg ([8]; 10 mg/kg p.o.): 2.1%; inhibition in vivo at 20 mg/kg ([8]; 20 mg/kg p.o.): 17.8%; inhibition in vivo at 40 mg/kg ([8]; 40 mg/kg p.o.): 47.5%; ED50 [8]: 50 mg/kg; Inhibition ([9]; 1 mg/kg p.o.): 14.4%; Inhibition ([9]; 5 mg/kg p.o.): 32.5%; Inhibition ([9]; 25 mg/kg p.o.): 56.6%; ED50 [9]: 16.5 mg/kg; Inhibition ([10]; 1 mg/kg p.o.): 22.2%; Inhibition ([10]; 5 mg/kg p.o.): 44.6%; ED30 [10]: 1.7 mg/kg
